In PubChem BioAssay AID250 (DTP/NCI, 2004):
“And” between values parts separate entries of the source, which are not always exact repeats. Equal values may be shown once. Toxic doses and inconclusive results are not listed. The calls were made as follows: active = survival T/C of 150% or more; inactive = T/C below 125% in these data.

System: BDF1 mice, L1210 leukemia sc, survival T/C
Assay: NCI In Vivo Anticancer Drug Screen. Data for tumor model L1210 Leukemia (subcutaneous) in B6D2F1 (BDF1) mice
Details: higher = longer survival
Summary of the method: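 Read-out: T/C ratio, i.e. survival or tumor size in treated mice over that in vehicle-treated controls, from mice bearing transplantable tumors.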

[1] = endpoint: median survival time, dose: 65.0 mg/kg/injection, schedule: Q01DX Z (sc), vehicle: saline
[2] = endpoint: median survival time, dose: 108.0 mg/kg/injection, schedule: Q01DX Z (sc), vehicle: saline
[3] = endpoint: median survival time, dose: 180.0 mg/kg/injection, schedule: Q01DX Z (sc), vehicle: saline
[4] = endpoint: median survival time, dose: 300.0 mg/kg/injection, schedule: Q01DX Z (sc), vehicle: saline
[5] = endpoint: median survival time, dose: 500.0 mg/kg/injection, schedule: Q01DX Z (sc), vehicle: saline

Measured: T/C

CCCSc1ncnc2nc[nH]c12
inactive: endpoint: median survival time, dose: 38.9 mg/kg/injection, schedule: Q01DX Z (sc), vehicle: methylcellulose (MC) 100 % of control | endpoint: median survival time, dose: 64.8 mg/kg/injection, schedule: Q01DX Z (sc), vehicle: methylcellulose (MC) 100 % of control | endpoint: median survival time, dose: 108.0 mg/kg/injection, schedule: Q01DX Z (sc), vehicle: methylcellulose (MC) 100 % of control | endpoint: median survival time, dose: 180.0 mg/kg/injection, schedule: Q01DX Z (sc), vehicle: methylcellulose (MC) 120 % of control | endpoint: median survival time, dose: 300.0 mg/kg/injection, schedule: Q01DX Z (sc), vehicle: methylcellulose (MC) 110 % of control

Cc1cccc2c(Nc3ccc(NS(C)(=O)=O)cc3)c3ccc([N+](=O)[O-])cc3nc12
active: endpoint: mean survival time, dose: 10.0 mg/kg/injection, schedule: Q01DX009 (ip), vehicle: saline 158 % of control

CN1c2c(nc(N)[nH]c2=O)NCC1CCNc1ccc(C(=O)NC(CCC(=O)O)C(=O)O)cc1 (stereo not drawn)
inactive: endpoint: median survival time, dose: 6.25 mg/kg/injection, schedule: Q01DX012 (ip), vehicle: other 100 % of control | endpoint: median survival time, dose: 12.5 mg/kg/injection, schedule: Q01DX012 (ip), vehicle: other 111 % of control | endpoint: median survival time, dose: 25.0 mg/kg/injection, schedule: Q01DX012 (ip), vehicle: other 122 % of control | endpoint: median survival time, dose: 50.0 mg/kg/injection, schedule: Q01DX012 (ip), vehicle: other 122 % of control

CCOC(N)=O
inactive: [1] 95 % of control | [2] 100 % of control | [3] 100 % of control | [4] 100 % of control | [5] 90 % of control

NC(=S)N/N=C/c1ccc(O)cn1
inactive: endpoint: median survival time, dose: 8.4 mg/kg/injection, schedule: Q03HX024 (sc), vehicle: none 120 % of control | endpoint: median survival time, dose: 50.0 mg/kg/injection, schedule: Q04DX003 (sc), vehicle: other 107 % of control and 110 % of control | endpoint: median survival time, dose: 60.0 mg/kg/injection, schedule: Q03HX024 (ip), vehicle: other 100 % of control | [1] 104 % of control | endpoint: median survival time, dose: 100.0 mg/kg/injection, schedule: Q04DX003 (ip), vehicle: other 111 % of control | endpoint: median survival time, dose: 100.0 mg/kg/injection, schedule: Q04DX003 (sc), vehicle: other 107 % of control and 110 % of control and 111 % of control | [2] 104 % of control | endpoint: median survival time, dose: 108.0 mg/kg/injection, schedule: Q04DX003 (sc), vehicle: none 100 % of control | endpoint: median survival time, dose: 108.0 mg/kg/injection, schedule: Q04DX003 (sc), vehicle: other 103 % of control and 105 % of control | [3] 104 % of control | endpoint: median survival time, dose: 180.0 mg/kg/injection, schedule: Q02DX005 (sc), vehicle: other 99 % of control | endpoint: median survival time, dose: 180.0 mg/kg/injection, schedule: Q04DX003 (sc), vehicle: none 100 % of control | endpoint: median survival time, dose: 180.0 mg/kg/injection, schedule: Q04DX003 (sc), vehicle: other 104 % of control and 105 % of control | endpoint: median survival time, dose: 180.0 mg/kg/injection, schedule: Q11HX006 (sc), vehicle: water 122 % of control | endpoint: median survival time, dose: 200.0 mg/kg/injection, schedule: Q04DX003 (ip), vehicle: other 111 % of control | endpoint: median survival time, dose: 200.0 mg/kg/injection, schedule: Q04DX003 (sc), vehicle: other 98 % of control and 100 % of control and 116 % of control | [4] 108 % of control | endpoint: median survival time, dose: 300.0 mg/kg/injection, schedule: Q02DX005 (sc), vehicle: other 108 % of control | endpoint: median survival time, dose: 300.0 mg/kg/injection, schedule: Q04DX003 (sc), vehicle: none 100 % of control | endpoint: median survival time, dose: 300.0 mg/kg/injection, schedule: Q04DX003 (sc), vehicle: other 105 % of control and 111 % of control | endpoint: median survival time, dose: 300.0 mg/kg/injection, schedule: Q04DX003 (sc), vehicle: water 111 % of control | endpoint: median survival time, dose: 300.0 mg/kg/injection, schedule: Q11HX006 (sc), vehicle: water 122 % of control | endpoint: median survival time, dose: 400.0 mg/kg/injection, schedule: Q01DX009 (sc), vehicle: other 88 % of control | endpoint: median survival time, dose: 400.0 mg/kg/injection, schedule: Q04DX003 (ip), vehicle: other 111 % of control | endpoint: median survival time, dose: 400.0 mg/kg/injection, schedule: Q04DX003 (sc), vehicle: other 99 % of control and 100 % of control and 116 % of control | endpoint: median survival time, dose: 500.0 mg/kg/injection, schedule: Q02DX005 (sc), vehicle: other 100 % of control and 117 % of control | endpoint: median survival time, dose: 500.0 mg/kg/injection, schedule: Q04DX003 (sc), vehicle: none 100 % of control | endpoint: median survival time, dose: 500.0 mg/kg/injection, schedule: Q04DX003 (sc), vehicle: other 106 % of control and 111 % of control | endpoint: median survival time, dose: 833.0 mg/kg/injection, schedule: Q02DX005 (sc), vehicle: other 105 % of control and 60 % of control | endpoint: median survival time, dose: 1388.0 mg/kg/injection, schedule: Q02DX005 (sc), vehicle: other 120 % of control and 60 % of control
active: endpoint: median survival time, dose: 10.0 mg/kg/injection, schedule: Q03HX024 (sc), vehicle: other 155 % of control | endpoint: median survival time, dose: 20.0 mg/kg/injection, schedule: Q03HX024 (ip), vehicle: other 183 % of control | endpoint: median survival time, dose: 20.0 mg/kg/injection, schedule: Q03HX024 (sc), vehicle: other 177 % of control | endpoint: median survival time, dose: 23.0 mg/kg/injection, schedule: Q03HX024 (sc), vehicle: none 175 % of control | endpoint: median survival time, dose: 30.0 mg/kg/injection, schedule: Q03HX024 (ip), vehicle: other 238 % of control | endpoint: median survival time, dose: 30.0 mg/kg/injection, schedule: Q03HX024 (sc), vehicle: other 266 % of control | endpoint: median survival time, dose: 39.0 mg/kg/injection, schedule: Q03HX024 (sc), vehicle: none 165 % of control | endpoint: median survival time, dose: 65.0 mg/kg/injection, schedule: Q01DX009 (sc), vehicle: other 158 % of control and 166 % of control | endpoint: median survival time, dose: 65.0 mg/kg/injection, schedule: Q08DX009 (sc), vehicle: none 150 % of control | endpoint: median survival time, dose: 100.0 mg/kg/injection, schedule: Q01DX009 (ip), vehicle: other 150 % of control | endpoint: median survival time, dose: 100.0 mg/kg/injection, schedule: Q01DX009 (sc), vehicle: other 155 % of control | endpoint: median survival time, dose: 108.0 mg/kg/injection, schedule: Q01DX009 (sc), vehicle: other 163 % of control and 166 % of control | endpoint: median survival time, dose: 108.0 mg/kg/injection, schedule: Q08DX009 (sc), vehicle: none 155 % of control | endpoint: median survival time, dose: 180.0 mg/kg/injection, schedule: Q01DX009 (sc), vehicle: other 170 % of control and 177 % of control | endpoint: median survival time, dose: 180.0 mg/kg/injection, schedule: Q08DX009 (sc), vehicle: none 150 % of control | endpoint: median survival time, dose: 200.0 mg/kg/injection, schedule: Q01DX009 (ip), vehicle: other 150 % of control | endpoint: median survival time, dose: 200.0 mg/kg/injection, schedule: Q01DX009 (sc), vehicle: other 150 % of control | endpoint: median survival time, dose: 300.0 mg/kg/injection, schedule: Q01DX009 (sc), vehicle: other 150 % of control | endpoint: median survival time, dose: 300.0 mg/kg/injection, schedule: Q08DX009 (sc), vehicle: none 160 % of control

CN(C)CCN(Cc1ccccc1)c1ccccn1
inactive: endpoint: median survival time, dose: 16.0 mg/kg/injection, schedule: Q01DX001 (sc), vehicle: saline 95 % of control and 100 % of control | endpoint: median survival time, dose: 20.0 mg/kg/injection, schedule: Q01DX001 (sc), vehicle: saline 97 % of control and 100 % of control | endpoint: median survival time, dose: 24.0 mg/kg/injection, schedule: Q01DX001 (sc), vehicle: saline 96 % of control and 100 % of control | endpoint: median survival time, dose: 30.0 mg/kg/injection, schedule: Q01DX001 (sc), vehicle: saline 98 % of control and 100 % of control

CC(=O)OCC(=O)[C@@]1(O)CC[C@H]2[C@@H]3C[C@H](F)C4=CC(=O)CC[C@]4(C)[C@H]3[C@@H](O)C[C@@]21C
active: endpoint: median survival time, dose: 39.0 mg/kg/injection, schedule: Q01DX Z (sc), vehicle: steriod suspending solution 155 % of control | endpoint: median survival time, dose: 65.0 mg/kg/injection, schedule: Q01DX Z (sc), vehicle: steriod suspending solution 155 % of control | endpoint: median survival time, dose: 108.0 mg/kg/injection, schedule: Q01DX Z (sc), vehicle: steriod suspending solution 150 % of control | endpoint: median survival time, dose: 180.0 mg/kg/injection, schedule: Q01DX Z (sc), vehicle: steriod suspending solution 161 % of control
inactive: endpoint: median survival time, dose: 8.4 mg/kg/injection, schedule: Q01DX Z (sc), vehicle: steriod suspending solution 100 % of control | endpoint: median survival time, dose: 14.0 mg/kg/injection, schedule: Q01DX Z (sc), vehicle: steriod suspending solution 100 % of control | endpoint: median survival time, dose: 23.0 mg/kg/injection, schedule: Q01DX Z (sc), vehicle: steriod suspending solution 111 % of control

O=c1[nH]c(=O)n(C2OC(CO)C(O)C2O)cc1I (stereo not drawn)
inactive: endpoint: median survival time, dose: 39.0 mg/kg/injection, schedule: Q01DX Z (sc), vehicle: saline 100 % of control | [1] 100 % of control | [2] 100 % of control | [3] 94 % of control and 100 % of control | [4] 100 % of control | [5] 100 % of control and 105 % of control | endpoint: median survival time, dose: 833.0 mg/kg/injection, schedule: Q01DX Z (sc), vehicle: saline 94 % of control | endpoint: median survival time, dose: 1388.0 mg/kg/injection, schedule: Q01DX Z (sc), vehicle: saline 94 % of control
